Assay results published in patent USRE38425E1, “Semicarbazones having CNS activity and pharmaceutical preparations containing same” (University of Saskatchewan Technologies, Inc., priority 1995, dated 2004).

Legend:
[1] = test system: rats; test: MES screen after oral administration to rats; settings: oral administration to rats; for MES screen ED50: time t (h) per compound as in the table
[2] = test system: rats; test: neurotoxicity screen after oral administration to rats; settings: oral administration to rats; time t (h) per compound as in the table
[3] = test system: mice; test: MES screen after intraperitoneal injection in mice; format: in vivo; settings: intraperitoneal injection in mice; time t (h) per compound as in the table
[4] = test system: mice; settings: for neurotoxicity screen TD50: intraperitoneal injection in mice, time t (h) per compound as in the table
[5] = test system: mice; settings: intraperitoneal injection in mice; time t (h) per compound as in the table

SMILES | MES screen ED50 [1] [mg/kg] | neurotoxicity screen TD50 [2] [mg/kg] | MES screen ED50 [3] [mg/kg] | neurotoxicity screen TD50 [4] [mg/kg] | acPTZ screen ED50 [5] [mg/kg] | MES screen: number of rats out of 4 which were protected ([1]; dose 30 mg/kg, 0.25 h) | MES screen: number of rats out of 4 which were protected ([1]; dose 30 mg/kg, 0.5 h) | MES screen: number of rats out of 4 which were protected ([1]; dose 30 mg/kg, 1 h) | MES screen: number of rats out of 4 which were protected ([1]; dose 30 mg/kg, 2 h) | MES screen: number of rats out of 4 which were protected ([1]; dose 30 mg/kg, 4 h) | MES screen: number of rats out of 4 which were protected ([1]; dose 12.5 mg/kg, 0.5 h) | MES screen: number of rats out of 4 which were protected ([1]; dose 12.5 mg/kg, 1 h) | MES screen: number of rats out of 4 which were protected ([1]; dose 12.5 mg/kg, 2 h) | MES screen: number of rats out of 4 which were protected ([1]; dose 12.5 mg/kg, 4 h) | also measured
CCCc1ccc(Oc2ccc(C=NNC(N)=O)cc2)cc1 [Compound 5q] | 2.63 | >500 |  |  |  |  |  |  |  |  |  |  |  |  | MES screen 0.5 h: number of rats out of 4 which were protected ([1]; dose 12.5 mg/kg, 0.5 h): 1; MES screen 1 h: number of rats out of 4 which were protected ([1]; dose 12.5 mg/kg, 1 h): 2; MES screen 2 h: number of rats out of 4 which were protected ([1]; dose 12.5 mg/kg, 2 h): 4; MES screen 4 h: number of rats out of 4 which were protected ([1]; dose 12.5 mg/kg, 4 h): 2
CC(C)(C)CC(C)(C)c1ccc(Oc2ccc(C=NNC(N)=O)cc2)cc1 [Compound 5t] |  |  | 11.27 | 124.53 | >200 |  |  |  |  |  |  |  |  |  | 
CCCCOc1ccc(Oc2ccc(C=NNC(N)=O)cc2)cc1 [Compound 5u] | 45.81 |  |  |  |  |  |  |  |  |  |  |  |  |  | MES screen 4 h: number of rats out of 4 which were protected ([1]; dose 12.5 mg/kg, 4 h): 2
CCCCCCCOc1ccc(Oc2ccc(C=NNC(N)=O)cc2)cc1 [Compound 5v] |  |  |  |  |  |  |  |  |  |  |  |  |  |  | toxicity screen 4 h: minimum dose whereby bioactivity was demonstrated in half or more of the mice ([4]; mouse, in vivo): −
CC(=NNC(N)=O)c1ccc(Oc2ccccc2)cc1 [Compound 13a] | 9.73 |  | 9.08 | 73.48 | 43.31 | 4 | 4 | 4 | 4 | 4 |  |  |  |  | 
CC(=NNC(N)=O)c1ccc(Oc2ccc(Cl)cc2)cc1 [Compound 13c] | 2.92 | <500 |  |  |  | 3 | 4 | 4 | 4 | 4 |  |  |  |  | 
CC(=NNC(N)=O)c1ccc(Oc2ccc(Br)cc2)cc1 [Compound 13d] | 1.52 | >500 |  |  |  |  |  |  |  |  | 3 | 4 | 4 | 4 | MES screen: number of rats out of 4 which were protected ([1]; dose 12.5 mg/kg, 0.25 h): 1
CCC(=NNC(N)=O)c1ccc(Oc2ccccc2)cc1 [Compound 13e] | 23.08 |  |  |  |  | 1 | 4 | 3 | 3 |  |  |  |  |  | 
CCC(=NNC(N)=O)c1ccc(Oc2ccc(F)cc2)cc1 [Compound 13f] | 4.25 |  | 5.46 | 35.26 | 12.84 |  |  |  |  |  | 2 | 4 | 4 | 4 | 
CCC(=NNC(N)=O)c1ccc(Oc2ccc(Cl)cc2)cc1 [Compound 13g] | 2.89 | >500 | 11.09 | <100 |  |  | 1 | 4 | 4 | 4 |  |  |  |  | 
CCC(=NNC(N)=O)c1ccc(Oc2ccc(Br)cc2)cc1 [Compound 13h] | 4.39 |  |  |  |  |  |  |  |  |  | 2 | 4 | 4 | 4 | 
CC(=NNC(N)=O)c1ccccc1Oc1ccc(F)cc1 [Compound 14b] | 43.37 |  |  |  |  | 1 | 1 | 3 | 3 | 2 |  |  |  |  | 
NC(=O)NN=Cc1ccc(OS(=O)(=O)c2ccccc2)cc1 [Compound 15f] |  |  | 25.27 | 113.00 | >100 |  |  |  |  |  | 2 | 2 | 4 | 3 | MES screen: number of rats out of 4 which were protected ([1]; dose 12.5 mg/kg, 0.25 h): 1
